Test results as given in paper PMC7614367, “Itraconazole inhibits endothelial cell migration by disrupting inositol pyrophosphate-dependent focal adhesion dynamics and cytoskeletal remodeling” (Biomedicine & Pharmacotherapy, 2023).

Assays:
FAK (GST-FAK, flag-FAK) [1] = biological target: T1, FAK (GST-FAK, flag-FAK) (Homo sapiens, UniProt Q05397); assay: bead pull-down of GST-FAK by flag-FAK, western blot; assay type: binding; conditions: CF2 (10 μM) competing with 5-InsP7 (5 μM)
T1 construct: gene PTK2; full-length FAK, GST- or flag-tagged, produced in HEK293 cells; tags kept; endogenous HUVEC protein also pulled down
T1 sequence (Q05397 2-1052): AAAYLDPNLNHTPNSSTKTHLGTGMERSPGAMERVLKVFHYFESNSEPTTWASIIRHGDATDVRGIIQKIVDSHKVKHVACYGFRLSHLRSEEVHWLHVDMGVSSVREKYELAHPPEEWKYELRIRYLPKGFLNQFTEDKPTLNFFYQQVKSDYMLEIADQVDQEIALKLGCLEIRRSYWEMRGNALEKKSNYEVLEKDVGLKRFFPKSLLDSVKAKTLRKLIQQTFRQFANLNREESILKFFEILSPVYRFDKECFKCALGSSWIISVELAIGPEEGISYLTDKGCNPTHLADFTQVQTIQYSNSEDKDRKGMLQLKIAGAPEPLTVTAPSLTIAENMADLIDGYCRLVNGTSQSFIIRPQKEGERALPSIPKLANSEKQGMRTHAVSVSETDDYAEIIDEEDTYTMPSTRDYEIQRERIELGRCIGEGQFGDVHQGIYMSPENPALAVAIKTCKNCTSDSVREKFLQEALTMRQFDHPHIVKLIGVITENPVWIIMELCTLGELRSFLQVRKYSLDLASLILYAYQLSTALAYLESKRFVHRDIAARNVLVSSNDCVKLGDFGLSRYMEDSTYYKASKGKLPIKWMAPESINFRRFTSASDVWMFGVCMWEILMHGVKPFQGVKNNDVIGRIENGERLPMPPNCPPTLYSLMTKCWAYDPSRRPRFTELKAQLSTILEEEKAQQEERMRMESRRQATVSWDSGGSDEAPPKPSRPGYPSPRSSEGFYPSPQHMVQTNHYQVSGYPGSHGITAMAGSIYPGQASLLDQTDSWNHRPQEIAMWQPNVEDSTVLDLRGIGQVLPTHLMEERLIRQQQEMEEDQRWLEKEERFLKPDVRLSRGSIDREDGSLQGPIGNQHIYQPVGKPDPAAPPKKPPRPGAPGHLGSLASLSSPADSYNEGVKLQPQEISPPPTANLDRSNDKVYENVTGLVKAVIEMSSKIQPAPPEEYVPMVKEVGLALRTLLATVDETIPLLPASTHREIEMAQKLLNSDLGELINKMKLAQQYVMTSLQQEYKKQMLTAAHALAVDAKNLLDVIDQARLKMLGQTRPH

endogenous FAK (MEF) = biological target: T2, endogenous FAK (MEF) (Mus musculus, UniProt P34152); assay: affinity resin pull-down from cell lysate, western blot; assay type: biochemical; conditions: immobilised 5-PCP-InsP5 resin
T2 construct: gene Ptk2; endogenous full-length FAK in lysates of WT and IP6K1 KO mouse embryonic fibroblasts
T2 sequence (P34152 2-1052): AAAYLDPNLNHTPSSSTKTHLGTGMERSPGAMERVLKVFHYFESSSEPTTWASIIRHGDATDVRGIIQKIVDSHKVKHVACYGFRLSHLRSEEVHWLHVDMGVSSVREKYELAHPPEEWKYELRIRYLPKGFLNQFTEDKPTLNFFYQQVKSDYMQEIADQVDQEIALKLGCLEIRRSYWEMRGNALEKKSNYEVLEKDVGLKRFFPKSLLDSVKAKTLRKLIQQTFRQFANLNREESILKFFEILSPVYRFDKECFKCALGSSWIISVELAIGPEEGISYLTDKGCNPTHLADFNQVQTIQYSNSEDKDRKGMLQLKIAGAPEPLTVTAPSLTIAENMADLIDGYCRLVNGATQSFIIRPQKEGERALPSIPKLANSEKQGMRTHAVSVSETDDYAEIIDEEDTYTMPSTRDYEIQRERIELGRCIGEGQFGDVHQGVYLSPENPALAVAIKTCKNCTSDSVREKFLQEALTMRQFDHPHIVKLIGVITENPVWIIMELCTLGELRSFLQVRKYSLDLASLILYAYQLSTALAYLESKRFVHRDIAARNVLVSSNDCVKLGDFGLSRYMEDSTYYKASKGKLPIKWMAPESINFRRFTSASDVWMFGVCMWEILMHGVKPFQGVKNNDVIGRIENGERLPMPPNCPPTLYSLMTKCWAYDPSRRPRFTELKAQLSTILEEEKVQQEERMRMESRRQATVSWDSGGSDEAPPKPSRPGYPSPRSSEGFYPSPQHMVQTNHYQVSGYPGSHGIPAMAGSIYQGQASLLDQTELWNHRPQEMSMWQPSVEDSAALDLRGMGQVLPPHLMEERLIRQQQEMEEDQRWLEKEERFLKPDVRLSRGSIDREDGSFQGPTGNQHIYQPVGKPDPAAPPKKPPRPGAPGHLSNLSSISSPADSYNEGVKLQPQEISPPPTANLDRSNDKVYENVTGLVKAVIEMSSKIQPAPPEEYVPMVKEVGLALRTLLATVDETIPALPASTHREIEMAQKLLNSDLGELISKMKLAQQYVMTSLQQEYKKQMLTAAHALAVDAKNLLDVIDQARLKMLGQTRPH

FAK (GST-FAK, flag-FAK) [2] = biological target: T1, FAK (GST-FAK, flag-FAK); assay: affinity resin pull-down of purified protein, western blot; assay type: binding; conditions: immobilised 5-PCP-InsP5 resin; 4 °C overnight; also endogenous protein from HUVEC lysate; free 5-PCP (10 μM) with 5-InsP7 (5 μM) in a FAK dimerization competition assay
p34 (flag-p34) = biological target: T3, p34 (flag-p34) (Homo sapiens, UniProt O15144); assay: as above; assay type: binding; conditions: immobilised 5-PCP-InsP5 resin; 4 °C overnight; also endogenous protein from HUVEC lysate
T3 construct: gene ARPC2; tag kept; endogenous HUVEC protein also pulled down

coronin (GST-coronin) = biological target: T4, coronin (GST-coronin) (Homo sapiens, UniProt Q9BR76); assay: as above; assay type: binding; conditions: immobilised 5-PCP-InsP5 resin; 4 °C overnight; also endogenous protein from HUVEC lysate
T4 construct: gene CORO1B; GST-fused coronin produced in HEK293 cells, eluted with glutathione; tag kept; endogenous HUVEC protein also pulled down
T4 sequence (Q9BR76 whole entry, the tested form may be a part): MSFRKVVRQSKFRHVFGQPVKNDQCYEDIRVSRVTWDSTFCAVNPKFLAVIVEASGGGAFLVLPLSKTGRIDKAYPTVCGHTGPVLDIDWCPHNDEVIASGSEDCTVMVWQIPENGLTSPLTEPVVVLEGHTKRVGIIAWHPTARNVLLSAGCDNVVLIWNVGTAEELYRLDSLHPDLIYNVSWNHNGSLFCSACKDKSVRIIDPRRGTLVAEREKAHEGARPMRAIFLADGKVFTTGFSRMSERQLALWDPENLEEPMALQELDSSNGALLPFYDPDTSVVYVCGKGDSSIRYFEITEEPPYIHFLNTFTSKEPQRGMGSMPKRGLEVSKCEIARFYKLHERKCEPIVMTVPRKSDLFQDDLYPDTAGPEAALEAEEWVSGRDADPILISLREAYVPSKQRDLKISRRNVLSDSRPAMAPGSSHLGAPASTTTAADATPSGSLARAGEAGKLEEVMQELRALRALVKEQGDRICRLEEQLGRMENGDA

Row | Structure (SMILES) | block of 5-InsP7-mediated FAK dimerization (FAK (GST-FAK, flag-FAK) [1]) | affinity resin pull-down from cell lysate, western blot (endogenous FAK (MEF)) | affinity resin pull-down of purified protein, western blot (FAK (GST-FAK, flag-FAK) [2]) | affinity resin pull-down of purified protein, western blot (p34 (flag-p34)) | affinity resin pull-down of purified protein, western blot (coronin (GST-coronin))
1 | O=C(N[C@@H]1[C@@H](OP(=O)(O)O)[C@H](OP(=O)(O)O)[C@H](OP(=O)(O)O)[C@H](OP(=O)(O)O)[C@H]1OP(=O)(O)O)C(F)(F)P(=O)(O)O [5-PCF2Am-InsP5] | 5-PCP and CF2 compete with 5-InsP7 to block 5-InsP7-mediated FAK dimer formation |  |  |  | 
2 | O=P(O)(O)CP(=O)(O)O[C@H]1[C@H](OP(=O)(O)O)[C@@H](OP(=O)(O)O)[C@@H](OP(=O)(O)O)[C@@H](OP(=O)(O)O)[C@@H]1OP(=O)(O)O [5-PCP-InsP5] |  | 5-PCP resin pulls down endogenous FAK in WT and IP6K1 KO MEF cells | 5-PCP resin pulls down purified full length (FL) FAK and FAK FERM domain | pulls down purified p34 and coronin in an in vitro protein binding assay | pulls down purified p34 and coronin in an in vitro protein binding assay
